Laboratory results: patent US20180256673A1, “METHODS FOR TREATING FUNGAL INFECTIONS” (priority 2015, published 2018)
In brackets after ≈: the same amount, converted by molar mass. Several values for one entry are separate records, joined by “and”; a condition that tells them apart may be missing. Equal values may be shown once. Read-outs that look alike come from different tables or passages of the source.

What was measured:
[1] = system: C. albicans NRRL Y-477; assay: microbe, parasite or virus in culture; assay type: cell-based, Candida albicans; conditions: for MIC: Candida albicans
[2] = system: C. krusei ATCC 6258; assay: Broth microdilution MIC (CLSI), Examples 3 and 4; conditions: Pichia kudriavzevii, ATCC6258, 24 h, read-out: Broth MIC
Description: Antifungal susceptibility testing. Candida strains were cultured aerobically at 35° C. on SDA plates or in RPMI 1640 broth (pH 7.0). […] MIC assays were performed in triplicate.

[3] = system: Aspergillus fumigatus; assay: Broth microdilution of invasive fungal isolates (CLSI M27-A3/M38-A2), MEC; assay type: cell-based; conditions: 56 isolates
[4] = system: C. parapsilosis CP02; assay: microbe, parasite or virus in culture; assay type: cell-based, Candida parapsilosis; conditions: for MIC: Lodderomyces parapsilosis
[5] = system: Candida glabrata; assay: microbe, parasite or virus in culture; assay type: cell-based
[6] = system: C. glabrata ATCC 90030, ATCC 2001; assay type: cell-based, Candida glabrata; conditions: for Freq. (replicate mutation frequency): replicate plates 1-3; for Plate concentration: SDA, minimum concentration to cleanly inhibit growth
Description: Spontaneous mutant selection. […] Three individual colonies from each strain were used to start cultures in RPMI. […] One milliliter aliquots were spread onto SDA plates containing drug with sterile glass beads. Starting viable count was enumerated by triplicate plating of serial dilutions of the starting inoculum. […] Glycerol stocks of putative mutant colonies were stored at −80° C. […] Spontaneous mutation frequencies were calculated by dividing the number of resistant colonies on a given plate by the starting inoculum plated. A subset of mutants (weighted heavily towards those selected with CMP1) were then evaluated by MIC and sequencing of FKS gene hot spot regions.

[7] = system: Candida krusei; assay: Broth microdilution of invasive fungal isolates (CLSI M27-A3/M38-A2); assay type: cell-based; conditions: 16 isolates

With `CC[C@H](C)C[C@H](C)CCCCCCCCC(=O)N[C@H]1C[C@@H](O)[C@@H](NCCN)NC(=O)[C@@H]2[C@@H](O)CCN2C(=O)[C@H]([C@H](O)CCN)NC(=O)[C@H]([C@H](O)[C@@H](O)c2ccc(O)cc2)NC(=O)[C@@H]2C[C@@H](O)CN2C(=O)[C@H]([C@@H](C)O)NC1=O` [CAS, caspofungin] the MIC ([1]; NRRLY477, 48 h, NRRL Y-477 P20-1, selecting drug ANID, Fks1 HS1 S645Y, 48 h read) was 2 µg/mL (≈ 1.83 µM), the MIC ([1]; NRRLY477, 48 h, NRRL Y-477 P20-1, selecting drug CMP1, 48 h read) was 0.5 µg/mL (≈ 0.457 µM) and the MIC ([1]; NRRLY477, NRRL Y-477 P20-1, selecting drug CAS) was 0.25 µg/mL (≈ 0.229 µM). It also gave an MIC ([1]; NRRLY477, read-out: MIC P20, NRRL Y-477, total population after 20 passages with the selecting drug, MIC of selecting drug) of 0.25 µg/mL, an MIC fold-shift ([1]; NRRL Y-477, WT to P20) of 1 and an MIC [2] of 0.5 µg/mL (≈ 0.457 µM). The “Cumulative % of isolates inhibited at MEC 0.015 μg/mL” value [3] was “(32.1) %”, the “Cumulative % of isolates inhibited at MEC 0.03 μg/mL” value [3] was “(94.6) %” and the “Cumulative % of isolates inhibited at MEC 0.06 μg/mL” value [3] was “(100.0) %”. The “Number of isolates inhibited at MEC 0.015 μg/mL” value [3] was 18, the “Number of isolates inhibited at MEC 0.03 μg/mL” value [3] was 35 and the “Number of isolates inhibited at MEC 0.06 μg/mL” value [3] was 3. The MIC fold-shift ([4]; CP02, WT to P20) was 2, the MIC ([4]; CP02, CP02 P20-1, selecting drug ANID) was 0.5 µg/mL (≈ 0.457 µM) and the MIC ([4]; CP02, CP02 P20-1, selecting drug CAS) was 1 µg/mL (≈ 0.915 µM). For the same molecule, the MIC ([4]; CP02, CP02 P20-1, selecting drug CMP1) was 1 µg/mL (≈ 0.915 µM), the MIC ([4]; CP02, read-out: MIC P20, CP02, total population after 20 passages with the selecting drug, MIC of selecting drug) was 1 µg/mL and the “Cumulative % of isolates inhibited at MIC 0.03 μg/mL” value ([5]; 100 isolates) was “(38.0) %”. For the same molecule, the “Cumulative % of isolates inhibited at MIC 0.06 μg/mL” value ([5]; 100 isolates) was “(89.0) %”, the “Cumulative % of isolates inhibited at MIC 0.12 μg/mL” value ([5]; 100 isolates) was “(95.0) %” and the “Cumulative % of isolates inhibited at MIC 0.25 μg/mL” value ([5]; 100 isolates) was “(95.0) %”. For the same molecule, the “Cumulative % of isolates inhibited at MIC 0.5 μg/mL” value ([5]; 100 isolates) was “(95.0) %”, the “Cumulative % of isolates inhibited at MIC 1 μg/mL” value ([5]; 100 isolates) was “(95.0) %” and the “Cumulative % of isolates inhibited at MIC 2 μg/mL” value ([5]; 100 isolates) was “(97.0) %”. For the same molecule, the “Cumulative % of isolates inhibited at MIC 4 μg/mL” value ([5]; 100 isolates) was “(97.0) %”, the “Cumulative % of isolates inhibited at MIC 8 μg/mL” value ([5]; 100 isolates) was “(100.0) %” and the “Number of isolates inhibited at MIC 0.03 μg/mL” value ([5]; 100 isolates) was 38. The “Number of isolates inhibited at MIC 0.06 μg/mL” value ([5]; 100 isolates) was 51, the “Number of isolates inhibited at MIC 0.12 μg/mL” value ([5]; 100 isolates) was 6 and the “Number of isolates inhibited at MIC 0.25 μg/mL” value ([5]; 100 isolates) was 0. For the same molecule, the “Number of isolates inhibited at MIC 0.5 μg/mL” value ([5]; 100 isolates) was 0, the “Number of isolates inhibited at MIC 1 μg/mL” value ([5]; 100 isolates) was 0 and the “Number of isolates inhibited at MIC 2 μg/mL” value ([5]; 100 isolates) was 3. The “Number of isolates inhibited at MIC 4 μg/mL” value ([5]; 100 isolates) was 0, the “Number of isolates inhibited at MIC 8 μg/mL” value ([5]; 100 isolates) was 3 and the MIC50 ([5]; Nakaseomyces glabratus) was 0.06 µg/mL (≈ 0.0549 µM). For the same molecule, the MIC90 ([5]; Nakaseomyces glabratus) was 0.12 µg/mL (≈ 0.11 µM), the MIC ([5]; Nakaseomyces glabratus, read-out: MIC according to CLSI method, isolate from CA, USA, fks1 HS1 S629P) was 8 µg/mL (≈ 7.32 µM) and the MIC ([5]; Nakaseomyces glabratus, read-out: MIC according to CLSI method, isolate from Canada (first line), fks1 HS1 S629P, fks2 HS1 S663P) was > 8 µg/mL. The MIC ([5]; Nakaseomyces glabratus, read-out: MIC according to CLSI method, isolate from Canada (second line), fks1 HS1 S629P, fks2 HS1 S663P) was > 8 µg/mL, the MIC ([5]; Nakaseomyces glabratus, read-out: MIC according to CLSI method, isolate from Israel, fks2 HS1 F659S) was 2 µg/mL (≈ 1.83 µM) and the MIC ([5]; Nakaseomyces glabratus, read-out: MIC according to CLSI method, isolate from NY, USA, fks2 HS1 S663P) was 2 µg/mL (≈ 1.83 µM). For the same molecule, the MIC ([5]; Nakaseomyces glabratus, read-out: MIC results, two isolates from same patient, Edmonton, Canada, fks1 HS1 S629P and fks2 HS1 S663P) was > 8 µg/mL, the Median mutation frequency ([6]; ATCC 2001) was 3.16E−08 and the “Freq. (replicate mutation frequency)” value ([6]; ATCC 2001) was 3.16E−08 and 2.92E−08 and 3.50E−08. For the same molecule, the Median mutation frequency ([6]; ATCC 90030) was 3.45E−07, the “Freq. (replicate mutation frequency)” value ([6]; ATCC 90030) was 4.85E−07 and 3.45E−07 and 2.57E−07 and the Plate concentration ([6]; ATCC 2001) was 0.5 µg/mL. For the same molecule, the Plate concentration ([6]; ATCC 90030) was 0.5 µg/mL, the “Cumulative % of isolates inhibited at MIC 0.06 μg/mL” value [7] was “(25.0) %” and the “Cumulative % of isolates inhibited at MIC 0.12 μg/mL” value [7] was “(87.5) %”. For the same molecule, the “Cumulative % of isolates inhibited at MIC 0.25 μg/mL” value [7] was “(100.0) %”, the “Number of isolates inhibited at MIC 0.06 μg/mL” value [7] was 4 and the “Number of isolates inhibited at MIC 0.12 μg/mL” value [7] was 10. For the same molecule, the “Number of isolates inhibited at MIC 0.25 μg/mL” value [7] was 2, the MIC50 ([7]; Pichia kudriavzevii, read-out: MIC50) was 0.12 µg/mL (≈ 0.11 µM) and the MIC90 ([7]; Pichia kudriavzevii, read-out: MIC90) was 0.25 µg/mL (≈ 0.229 µM).
